According to US12383710B2 (Urotronic, Inc., priority 2019, dated 2025):

Experiments:
[1] = stability under ethylene oxide sterilization, heating, and aging with paclitaxel; conditions: reacted with paclitaxel
[2] = BPH Preclinical Study 4: tissue and plasma PK, histology

prostate tissue drug concentration, maximum dose arm vs standard dose ([2]; 28 days) | prostatic urethra tissue drug concentration, maximum dose arm vs standard dose ([2]; 28 days) | prostate tissue drug concentration, maximum dose arm vs standard dose ([2]; 70 days) | prostatic urethra tissue drug concentration, maximum dose arm vs standard dose ([2]; 70 days) | clinical abnormalities ([2]; all animals, duration of the study) | histology of the prostate ([2]; maximum dose animals, 28 days, slower healing relative to standard dose and control) | abnormalities or complications ([2]; maximum dose treatment arm, 19.6 mg of paclitaxel) | plasma paclitaxel concentration ([2]; maximum dose, 12 hour and later) | nonurethral close proximity tissue sample concentrations ([2]; most samples, 28 days and beyond) | plasma paclitaxel concentration ([2]; standard dose, all time-points (1, 3, 7, 12 hours, 1, 3, 7, 14, 28 days)) | Structure (SMILES) | stability under ethylene oxide sterilization, heating, and aging process [1] | increase of urethral luminal diameter as a result of commissurotomy ([2]; did not change between 7 days and 70 days)
 |  |  |  |  |  |  |  |  |  | O=C(O)c1ccccc1 [benzoic acid] | not stable | 
4.5 times higher | 11 times higher | 23 times higher | 23 times higher | No significant clinical abnormalities | ongoing healing | no abnormalities or complications | BLOQ | at or below the limit of quantification | BLOQ | CC(=O)O[C@H]1C(=O)[C@@]2(C)[C@H]([C@H](OC(=O)c3ccccc3)[C@]3(O)C[C@H](OC(=O)[C@H](O)[C@@H](NC(=O)c4ccccc4)c4ccccc4)C(C)=C1C3(C)C)[C@]1(OC(C)=O)CO[C@@H]1C[C@@H]2O [paclitaxel] |  | approximately 50%
